Source: patent US6703421B1, “Methods of using phenylmethylbenzoquinone and hydroquinone compounds for treatment of myocarditis, dilated cardiomyopathy and heart failure” (Daiichi Suntory Pharma Co., Ltd., priority 1999, dated 2004)

Tested on: EMC virus-inoculated DBA/2 mice (viral myocarditis)
Test: Survival rate in murine viral myocarditis model
Assay type: in vivo, mouse
Settings: 30 mg/kg intraperitoneally daily for 14 days, 0.5% gum arabic; FIG. 2
Procedure: Viral myocarditis mice were prepared using the procedure described below in accordance with a known method (Shioi T. et al. (1997) J. Mol. Cell. Cardiol., 29, 2327-2334). Variant M (acquired from the American Type Culture Collection) was used for the EMC virus for inoculation and prepared to 100 pfu/ml in Eagle's MEM medium (Nissui Pharmaceutical). Four-week-old DBA/2 male mice were divided into two groups, and intraperitoneally inoculated with EMC virus at 10 pfu/animal. Test compound was then administered intraperitoneally and daily for 14 days under the following conditions to each group starting 3 hours after inoculation.
The test compound was used after dissolving in 0.5% aqueous gum arabic solution (3 mg/ml). In the present example, the compound of Production Example 4 was used in the test as the NF-κB inhibitor.
Test group (n=10): Administration of NF-κB inhibitor (Production Example 4) at 30 mg/kg body weight Control group (n=10): 0.5% aqueous gum arabic solution
The experiment was conducted in the following three groups using the same method as Example 2 and the compound of Production Example 7 for the NF-κB inhibitor. The test compound was used after dissolving in 10% aqueous dimethylsulfoxide solution (DMSO) (test group 1: 0.3 mg/ml, test group 2: 3 mg/ml). The survival rates were tested for the presence of a significant difference according to the Kaplan-Meier method, and statistical significance was defined as p<0.05.
Test group 1 (n=21): Administration of NF-κB inhibitor (Production Example 7) at 3 mg/kg body weight
Test group 2 (n=21): Administration of NF-κB inhibitor (Production Example 7) at 30 mg/kg body weight
Four-week-old DBA/2 male mice were inoculated with EMC virus using the same method as Example 2, and the test compound was administered orally and daily for 14 days under the following conditions to each group starting 2 hours after inoculation.
The test compound was used after dissolving in 10% aqueous sulfobutylcyclodextrin solution (3 mg/ml). In the present example, the compound of Production Example 44 was used in the test as the NF-κB inhibitor.
Test group (n=20): Administration of NF-κB inhibitor (Production Example 44) at 30 mg/kg body weight

Row | Structure (SMILES) | survival rate
1 | COC1=C(OC)C(=O)C(Cc2ccc(CCC(=O)N3CCSCC3)cc2)=C(C)C1=O [Prod. Ex. 4, N-[3-[4-(5,6-Dimethoxy-3-methyl-1,4-benzoquinon-2-ylmethyl)phenyl]propionyl]thimorpholine] | improves the survival rate

Same assay, conditions: 30 mg/kg orally daily for 14 days, 10% sulfobutylcyclodextrin; FIG. 4

Row | Structure (SMILES) | survival rate
2 | COC1=C(OC)C(=O)C(Cc2cccc(C(=O)N3CCOCC3)c2)=C(C)C1=O [Prod. Ex. 44, N-[3-(5,6-Dimothoxy-3-methyl-1,4-benzoquinon-2-ylmethyl)benzoyl]morpholine] | improves survival rate

Tested on: NF-κB
Test: NF-κB luciferase reporter assay in A549/NF-κBLuc cells
Assay type: cell-based, human
Settings: A549/NF-κBLuc stimulated with IL-1β (1 ng/ml) or TNF-α (500 ng/ml) for 4 hours; dose-dependent; FIG. 1
Procedure: Using lipofectamine (Lifetech Oriental K. K., Tokyo) according to the conventional method, human lung cancer cell line A549 cells (ATCC catalog no. CCL185), which are known to express hiNOS by cytokine stimulation, were co-transfected with pNFκB-Luc, which are plasmid controlled by a NF-κB binding consensus sequence, and pSV2neo (Clontech, U.S.A.), and then A549/NF-κBLuc, the cell that has stably introduced pNFκB-Luc, was selected by adding G418 sulfate (1 mg/ml, Lifetech Oriental K. K.) to the culture medium.
The luciferase activity was measured using the Luciferase Assay System (Promega, U.S.A.).

Row | Structure (SMILES) | luciferase activity regulated by activation of NF-κB
3 | COC1=C(OC)C(=O)C(Cc2ccc(CCC(=O)N3CCSCC3)cc2)=C(C)C1=O [Prod. Ex. 4, N-[3-[4-(5,6-Dimethoxy-3-methyl-1,4-benzoquinon-2-ylmethyl)phenyl]propionyl]thimorpholine] | suppresses luciferase activity

Same assay, conditions: Homo sapiens; A549/NF-κBLuc, IL-1β (1 ng/ml) for 4 hours, luciferase activity; read-out: IC50 (μM) IL-1 stimulation

Row | Structure (SMILES) | IC50
4 | COC1=C(OC)C(=O)C(Cc2cccc(C(=O)N3CCOCC3)c2)=C(C)C1=O [Prod. Ex. 44, N-[3-(5,6-Dimothoxy-3-methyl-1,4-benzoquinon-2-ylmethyl)benzoyl]morpholine] | 39 µM
5 | COC1=C(OC)C(=O)C(Cc2ccc(CCC(=O)N3CCN(c4ccccc4)CC3)cc2)=C(C)C1=O [Prod. Ex. 148] | 25 µM
6 | CC1=C(C)C(=O)C(Cc2cccc(CCC(=O)N3CCOCC3)c2)=C(C)C1=O [Prod. Ex. 51, N-[3-[3-(3,5,6-Trimethyl-1,4-benzoquinon-2-ylmethyl)phenyl]propionyl]morpholine] | 18 µM
7 | COC1=C(OC)C(=O)C(Cc2cccc(/C=C/C(=O)NC(C)C)c2)=C(C)C1=O [Prod. Ex. 39, N-[3-[3-(5,6-Dimethoxy-3-methyl-1,4-benzoquinon-2-ylmethyl)phenyl]acryloyl]isopropylamine] | 39 µM
8 | COC1=C(OC)C(=O)C(Cc2ccc(CCC(=O)Nc3ccc(O)cc3)cc2)=C(C)C1=O [Prod. Ex. 189] | 28 µM
9 | COC1=C(OC)C(=O)C(Cc2cccc(CC(=O)N3CCOCC3)c2)=C(C)C1=O [Prod. Ex. 60, N-[3-(5,6-Dimethoxy-3-methyl-1,4-benzoquinon-2-ylmethyl)phenylacetyl]morpholine] | 18 µM
10 | COC1=C(OC)C(=O)C(Cc2cccc(/C=C/C(=O)N3CCCCC3)c2)=C(C)C1=O [Prod. Ex. 37, N-[3-[3-(5,6-Dimethoxy-3-methyl-1,4-benzoquinon-2-ylmethyl)phenyl]acryloyl]piperidine] | 49 µM
11 | COC1=C(OC)C(=O)C(Cc2ccc(CCC(=O)NC(C)CC(C)C)cc2)=C(C)C1=O (stereo not drawn) [Prod. Ex. 128] | 19 µM
12 | COC1=C(OC)C(=O)C(Cc2cccc(C(=O)N3CCCCC3)c2)=C(C)C1=O [Prod. Ex. 43, N-[3-(5,6-Dimethoxy-3-methyl-1,4-benzoquinon-2-ylmethyl)benzoyl]piperidine] | 21 µM
13 | COC1=C(OC)C(=O)C(Cc2cccc(CC(=O)NC(C)C)c2)=C(C)C1=O [Prod. Ex. 61, N-[3-(5,6-Dimethoxy-3-methyl-1,4-benzoquinon-2-ylmethyl)phenylacetyl]isopropylamine] | 24 µM
14 | COC1=C(OC)C(=O)C(Cc2ccc(CCC(=O)N3CCN(c4ccccc4OC)CC3)cc2)=C(C)C1=O [Prod. Ex. 163] | 19 µM
15 | COC1=C(OC)C(=O)C(Cc2ccccc2CCC(=O)N2CCCCC2)=C(C)C1=O [Prod. Ex. 70, N-[3-[2-(5,6-Dimethoxy-3-methyl-1,4-benzoquinon-2-ylmethyl)phenyl]propionyl]piperidine] | 44 µM
16 | CCOC(=O)N1CCN(C(=O)CCc2ccc(CC3=C(C)C(=O)C(OC)=C(OC)C3=O)cc2)CC1 [Prod. Ex. 147] | 47 µM

Compounds with a lower IC50, results first:

Row | IC50 | Structure (SMILES)
17 | 10 µM | COC1=C(OC)C(=O)C(Cc2ccc(CCC(=O)Nc3ccc(OC)c(OC)c3)cc2)=C(C)C1=O [Prod. Ex. 103]
18 | 7 µM | COC1=C(OC)C(=O)C(Cc2ccc(CCC(=O)N3CCC[C@H]3C(N)=O)cc2)=C(C)C1=O [Prod. Ex. 106]
19 | 9 µM | COC1=C(OC)C(=O)C(Cc2ccc(CCC(=O)N3CCC(C(C)=O)(c4ccccc4)CC3)cc2)=C(C)C1=O [Prod. Ex. 168]
20 | 5 µM | COC1=C(OC)C(=O)C(Cc2ccc(CCC(=O)N3CCC(C)CC3)cc2)=C(C)C1=O [Prod. Ex. 81]
21 | 7 µM | COC1=C(OC)C(=O)C(Cc2ccc(CCC(=O)N[C@H](C)c3ccccc3)cc2)=C(C)C1=O [Prod. Ex. 121]
22 | 12 µM | COC1=C(OC)C(=O)C(Cc2cccc(CCCC(=O)N3CCOCC3)c2)=C(C)C1=O [Prod. Ex. 65, N-[4-[3-(5,6-Dimethoxy-3-methyl-1,4-benzoquinon-2-ylmethyl)phenyl]butanoyl]morpholine]
23 | 16 µM | CCOC(=O)C1CCCCN1C(=O)CCc1ccc(CC2=C(C)C(=O)C(OC)=C(OC)C2=O)cc1 (stereo not drawn) [Prod. Ex. 105]
24 | 12 µM | COC1=C(OC)C(=O)C(Cc2ccc(CCC(=O)NC(C)CO)cc2)=C(C)C1=O (stereo not drawn) [Prod. Ex. 104]
25 | 17 µM | COC1=C(OC)C(=O)C(Cc2cccc(C(=O)N3CCSCC3)c2)=C(C)C1=O [Prod. Ex. 45, N-[3-(5,6-Dimethoxy-3-methyl-1,4-benzoquinon-2-ylmethyl)benzoyl]thiomorpholine]
26 | 3 µM | COC1=C(OC)C(=O)C(Cc2cccc(CCCC(=O)NC(C)C)c2)=C(C)C1=O [Prod. Ex. 66, N-[4-[3-(5,6-Dimethoxy-3-methyl-1,4-benzoquinon-2-ylmethyl)phenyl]butanoyl]isopropylamine]
27 | 7 µM | COC1=C(OC)C(=O)C(Cc2ccc(CCC(=O)N3CC(C)CC(C)C3)cc2)=C(C)C1=O (stereo not drawn) [Prod. Ex. 137]
28 | 16 µM | CC1=C(C)C(=O)C(Cc2cccc(CCC(=O)N3CCCCC3)c2)=C(C)C1=O [Prod. Ex. 50, N-[3-[3-(3,5,6-Trimethyl-1,4-benzoquinon-2-ylmethyl)phenyl]propionyl]piperidine]
29 | 14 µM | COC1=C(OC)C(=O)C(Cc2ccc(CCCC(=O)NC(C)C)cc2)=C(C)C1=O [Prod. Ex. 30, N-[4-[4-(5,6-Dimethoxy-3-methyl-1,4-benzoquinon-2-ylmethyl)phenyl]butanoyl]isopropylamine]
30 | 5 µM | COC1=C(OC)C(=O)C(Cc2ccc(CC(=O)N3CCCCC3)cc2)=C(C)C1=O [Prod. Ex. 54, N-[4-(5,6-Dimethoxy-3-methyl-1,4-benzoquinon-2-ylmethyl)phenylacetyl]piperidine]
31 | 10 µM | COC1=C(OC)C(=O)C(Cc2ccc(CCC(=O)N3CCSCC3)cc2)=C(C)C1=O [Prod. Ex. 4, N-[3-[4-(5,6-Dimethoxy-3-methyl-1,4-benzoquinon-2-ylmethyl)phenyl]propionyl]thimorpholine]
32 | 2 µM | COC1=C(OC)C(=O)C(Cc2ccc(CCC(=O)N[C@@H](C)c3ccccc3)cc2)=C(C)C1=O [Prod. Ex. 120]

Same assay, conditions: Homo sapiens; A549/NF-κBLuc, TNF-α (500 ng/ml) for 4 hours, luciferase activity; read-out: IC50 (μM) TNF stimulation

Row | IC50 | Structure (SMILES)
33 | 10 µM | COC1=C(OC)C(=O)C(Cc2ccc(CCC(=O)N3CCSCC3)cc2)=C(C)C1=O [Prod. Ex. 4, N-[3-[4-(5,6-Dimethoxy-3-methyl-1,4-benzoquinon-2-ylmethyl)phenyl]propionyl]thimorpholine]
